The values that follow are results of earlier work, collected in patent publication US9434994B2, “Methods for prediction of clinical outcome to epidermal growth factor receptor inhibitors by non-small cell lung cancer patients” (The Regents of the University of Colorado, a body corporate, priority 2004, dated 2016).

The test system of this series is chemotherapy resistant NSCLC patients. The note with it: single agent; cited from earlier work.

SMILES strings stand for the structures.

Turning to `COc1cc2ncnc(Nc3ccc(F)c(Cl)c3)c2cc1OCCCN1CCOCC1` [gefitinib], the response rates result is “about 10%”.
